Tests used:
Test in all cases: SelectScreen ZLYTE
Type in all cases: biochemical
Settings in all cases: INX-0315 at 100nM
SRMS (Srm) = target: T1, SRMS (Srm) (Homo sapiens, UniProt Q9H3Y6)
T1 construct: purchased Thermo Fisher Scientific SelectScreen (plus Nanosyn / Reaction Biology for CDK/cyclin lines)
Summary of the method: (§1)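 Activity and binding formats were run as established by the profiling service; INX-315 entered at one concentration (100 nmol/L, 1% DMSO) before titration over a 1 µmol/L–0.0495 nmol/L range in ten steps.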

ZAP70 = target: T2, ZAP70 (Homo sapiens, UniProt P43403)
T2 construct: purchased Thermo Fisher Scientific SelectScreen (plus Nanosyn / Reaction Biology for CDK/cyclin lines)
Summary of the method: as §1

NEK1 = target: T3, NEK1 (Homo sapiens, UniProt Q96PY6)
T3 construct: purchased Thermo Fisher Scientific SelectScreen (plus Nanosyn / Reaction Biology for CDK/cyclin lines)
Summary of the method: as §1

FGFR3 K650E = target: T4, FGFR3 K650E (Homo sapiens, UniProt P22607, K650E)
T4 construct: purchased Thermo Fisher Scientific SelectScreen (plus Nanosyn / Reaction Biology for CDK/cyclin lines)
Summary of the method: as §1

HIPK1 (Myak) = target: T5, HIPK1 (Myak) (Homo sapiens, UniProt Q86Z02)
T5 construct: purchased Thermo Fisher Scientific SelectScreen (plus Nanosyn / Reaction Biology for CDK/cyclin lines)
Summary of the method: as §1

CAMK1G (CAMKI gamma) = target: T6, CAMK1G (CAMKI gamma) (Homo sapiens, UniProt Q96NX5)
T6 construct: purchased Thermo Fisher Scientific SelectScreen (plus Nanosyn / Reaction Biology for CDK/cyclin lines)
Summary of the method: as §1

PRKCZ (PKC zeta) = target: T7, PRKCZ (PKC zeta) (Homo sapiens, UniProt Q05513)
T7 construct: purchased Thermo Fisher Scientific SelectScreen (plus Nanosyn / Reaction Biology for CDK/cyclin lines)
T7 sequence (Q05513 whole entry): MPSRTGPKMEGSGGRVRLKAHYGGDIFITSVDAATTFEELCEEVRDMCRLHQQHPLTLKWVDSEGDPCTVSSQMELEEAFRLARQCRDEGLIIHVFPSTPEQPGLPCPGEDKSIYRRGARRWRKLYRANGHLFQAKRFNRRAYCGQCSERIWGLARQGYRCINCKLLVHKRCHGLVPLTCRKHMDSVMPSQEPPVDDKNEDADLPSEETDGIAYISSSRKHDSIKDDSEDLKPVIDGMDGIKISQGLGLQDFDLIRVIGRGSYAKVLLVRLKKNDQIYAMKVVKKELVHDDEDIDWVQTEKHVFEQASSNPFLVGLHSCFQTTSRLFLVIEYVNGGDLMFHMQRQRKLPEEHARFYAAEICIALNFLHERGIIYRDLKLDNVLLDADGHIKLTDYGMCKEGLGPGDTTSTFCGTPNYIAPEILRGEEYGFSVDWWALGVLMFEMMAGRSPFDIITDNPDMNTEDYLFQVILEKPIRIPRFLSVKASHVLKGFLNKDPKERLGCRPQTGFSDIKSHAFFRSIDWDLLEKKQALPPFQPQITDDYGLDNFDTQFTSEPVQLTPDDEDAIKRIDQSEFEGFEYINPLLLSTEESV
Summary of the method: as §1

MAPK14 (p38 alpha) = target: T8, MAPK14 (p38 alpha) (Homo sapiens, UniProt Q16539)
T8 construct: purchased Thermo Fisher Scientific SelectScreen (plus Nanosyn / Reaction Biology for CDK/cyclin lines)
Summary of the method: as §1

NEK9 = target: T9, NEK9 (Homo sapiens, UniProt Q8TD19)
T9 construct: purchased Thermo Fisher Scientific SelectScreen (plus Nanosyn / Reaction Biology for CDK/cyclin lines)
Summary of the method: as §1

MAP4K5 (KHS1) = target: T10, MAP4K5 (KHS1) (Homo sapiens, UniProt Q9Y4K4)
T10 construct: purchased Thermo Fisher Scientific SelectScreen (plus Nanosyn / Reaction Biology for CDK/cyclin lines)
T10 sequence (Q9Y4K4 whole entry): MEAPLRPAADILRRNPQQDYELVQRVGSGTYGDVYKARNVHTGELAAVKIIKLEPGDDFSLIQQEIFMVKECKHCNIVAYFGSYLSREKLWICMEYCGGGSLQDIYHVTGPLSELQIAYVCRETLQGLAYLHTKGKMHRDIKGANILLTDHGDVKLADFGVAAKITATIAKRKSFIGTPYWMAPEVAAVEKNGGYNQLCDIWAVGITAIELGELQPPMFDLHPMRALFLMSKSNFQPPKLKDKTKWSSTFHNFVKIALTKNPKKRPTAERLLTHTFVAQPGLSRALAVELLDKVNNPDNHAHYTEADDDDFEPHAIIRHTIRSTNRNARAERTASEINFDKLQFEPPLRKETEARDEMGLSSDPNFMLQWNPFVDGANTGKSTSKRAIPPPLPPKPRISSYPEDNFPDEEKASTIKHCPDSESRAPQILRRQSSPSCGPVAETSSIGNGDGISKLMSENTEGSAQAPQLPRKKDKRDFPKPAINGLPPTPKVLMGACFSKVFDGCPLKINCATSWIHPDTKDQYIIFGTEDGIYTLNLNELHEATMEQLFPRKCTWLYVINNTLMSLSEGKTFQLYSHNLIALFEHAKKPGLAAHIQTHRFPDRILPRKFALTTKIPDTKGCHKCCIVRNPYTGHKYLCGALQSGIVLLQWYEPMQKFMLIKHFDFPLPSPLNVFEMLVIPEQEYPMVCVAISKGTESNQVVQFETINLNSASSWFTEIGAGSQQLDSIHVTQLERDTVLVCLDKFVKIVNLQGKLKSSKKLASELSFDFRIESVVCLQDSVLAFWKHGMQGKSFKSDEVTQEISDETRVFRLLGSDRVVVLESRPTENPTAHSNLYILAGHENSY
Summary of the method: as §1

PLK1 = target: T11, PLK1 (Homo sapiens, UniProt P53350)
T11 construct: purchased Thermo Fisher Scientific SelectScreen (plus Nanosyn / Reaction Biology for CDK/cyclin lines)
Summary of the method: as §1

AMPK (A2/B1/G3) = target: T12, AMPK (A2/B1/G3) (Homo sapiens, UniProt P54646)
T12 construct: purchased Thermo Fisher Scientific SelectScreen (plus Nanosyn / Reaction Biology for CDK/cyclin lines)
T12 sequence (P54646 whole entry): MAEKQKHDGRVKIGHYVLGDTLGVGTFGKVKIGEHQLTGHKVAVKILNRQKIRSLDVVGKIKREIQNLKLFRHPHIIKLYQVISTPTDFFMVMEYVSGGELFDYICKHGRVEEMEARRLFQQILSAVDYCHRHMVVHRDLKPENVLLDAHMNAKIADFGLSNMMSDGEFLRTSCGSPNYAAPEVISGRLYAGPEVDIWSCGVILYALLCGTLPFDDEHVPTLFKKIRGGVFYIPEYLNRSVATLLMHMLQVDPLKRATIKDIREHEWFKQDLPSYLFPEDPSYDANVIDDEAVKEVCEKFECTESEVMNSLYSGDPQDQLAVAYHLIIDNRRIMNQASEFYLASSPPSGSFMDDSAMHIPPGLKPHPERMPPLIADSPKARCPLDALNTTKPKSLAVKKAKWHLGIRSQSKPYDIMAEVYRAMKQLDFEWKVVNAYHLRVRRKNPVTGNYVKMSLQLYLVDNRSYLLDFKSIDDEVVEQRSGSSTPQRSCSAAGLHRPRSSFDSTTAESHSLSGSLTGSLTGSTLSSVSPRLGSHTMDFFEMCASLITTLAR
T12 sequence (Q9Y478 whole entry partner): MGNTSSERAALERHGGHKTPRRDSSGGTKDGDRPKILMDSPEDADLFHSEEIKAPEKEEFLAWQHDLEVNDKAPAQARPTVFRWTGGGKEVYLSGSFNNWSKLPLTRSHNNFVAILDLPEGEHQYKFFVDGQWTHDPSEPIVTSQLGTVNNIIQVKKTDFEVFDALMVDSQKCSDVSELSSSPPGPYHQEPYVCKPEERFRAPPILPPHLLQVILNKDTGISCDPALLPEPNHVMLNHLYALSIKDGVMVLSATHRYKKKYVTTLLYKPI
T12 sequence (Q9UGI9 whole entry partner): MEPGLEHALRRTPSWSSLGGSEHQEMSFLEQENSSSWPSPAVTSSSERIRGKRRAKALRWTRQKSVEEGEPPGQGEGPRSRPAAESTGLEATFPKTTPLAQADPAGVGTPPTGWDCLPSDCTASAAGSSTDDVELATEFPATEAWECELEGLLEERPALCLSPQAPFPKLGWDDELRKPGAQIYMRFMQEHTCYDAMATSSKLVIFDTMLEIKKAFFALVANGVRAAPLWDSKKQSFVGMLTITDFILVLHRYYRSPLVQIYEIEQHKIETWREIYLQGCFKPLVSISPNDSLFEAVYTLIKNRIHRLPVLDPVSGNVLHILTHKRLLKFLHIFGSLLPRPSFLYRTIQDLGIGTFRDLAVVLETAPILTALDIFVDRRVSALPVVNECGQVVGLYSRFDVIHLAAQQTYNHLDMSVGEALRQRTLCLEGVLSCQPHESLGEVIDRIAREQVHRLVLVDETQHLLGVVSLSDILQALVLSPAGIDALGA
Summary of the method: as §1

MST4 = target: T13, MST4 (Homo sapiens, UniProt Q9P289)
T13 construct: purchased Thermo Fisher Scientific SelectScreen (plus Nanosyn / Reaction Biology for CDK/cyclin lines)
Summary of the method: as §1

PAK1 = target: T14, PAK1 (Homo sapiens, UniProt Q13153)
T14 construct: purchased Thermo Fisher Scientific SelectScreen (plus Nanosyn / Reaction Biology for CDK/cyclin lines)
Summary of the method: as §1

SRPK1 = target: T15, SRPK1 (Homo sapiens, UniProt Q96SB4)
T15 construct: purchased Thermo Fisher Scientific SelectScreen (plus Nanosyn / Reaction Biology for CDK/cyclin lines)
T15 sequence (Q96SB4 whole entry): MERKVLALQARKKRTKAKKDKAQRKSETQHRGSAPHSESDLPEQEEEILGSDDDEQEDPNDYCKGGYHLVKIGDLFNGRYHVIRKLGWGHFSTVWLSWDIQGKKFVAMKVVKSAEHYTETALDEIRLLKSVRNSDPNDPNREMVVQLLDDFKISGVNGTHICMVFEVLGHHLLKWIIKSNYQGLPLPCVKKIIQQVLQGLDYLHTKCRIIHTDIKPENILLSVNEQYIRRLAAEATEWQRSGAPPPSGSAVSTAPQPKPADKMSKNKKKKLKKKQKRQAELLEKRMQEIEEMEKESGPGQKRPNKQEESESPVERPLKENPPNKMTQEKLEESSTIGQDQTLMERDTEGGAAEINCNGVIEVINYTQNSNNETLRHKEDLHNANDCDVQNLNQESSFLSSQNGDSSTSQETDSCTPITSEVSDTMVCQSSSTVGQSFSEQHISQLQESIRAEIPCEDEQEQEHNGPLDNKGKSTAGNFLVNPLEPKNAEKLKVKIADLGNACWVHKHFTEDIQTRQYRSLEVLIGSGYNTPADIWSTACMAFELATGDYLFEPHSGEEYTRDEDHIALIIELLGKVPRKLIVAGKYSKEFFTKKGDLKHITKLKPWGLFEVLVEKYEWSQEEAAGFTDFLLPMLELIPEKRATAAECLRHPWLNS
Summary of the method: as §1

MAPK3 (ERK1) = target: T16, MAPK3 (ERK1) (Homo sapiens, UniProt P27361)
T16 construct: purchased Thermo Fisher Scientific SelectScreen (plus Nanosyn / Reaction Biology for CDK/cyclin lines)
Summary of the method: as §1

DYRK1A = target: T17, DYRK1A (Homo sapiens, UniProt Q13627)
T17 construct: purchased Thermo Fisher Scientific SelectScreen (plus Nanosyn / Reaction Biology for CDK/cyclin lines)
Summary of the method: as §1

PAK3 = target: T18, PAK3 (Homo sapiens, UniProt O75914)
T18 construct: purchased Thermo Fisher Scientific SelectScreen (plus Nanosyn / Reaction Biology for CDK/cyclin lines)
Summary of the method: as §1

CDK5/p25 = target: T19, CDK5/p25 (Homo sapiens, UniProt Q00535)
T19 construct: purchased BPS 40105
Summary of the method: as §1

CSNK1G2 (CK1 gamma 2) = target: T20, CSNK1G2 (CK1 gamma 2) (Homo sapiens, UniProt P78368)
T20 construct: purchased Thermo Fisher Scientific SelectScreen (plus Nanosyn / Reaction Biology for CDK/cyclin lines)
Summary of the method: as §1

[1] = target: T21, CSNK1E (CK1 epsilon) R178C (Homo sapiens, UniProt P49674, R178C)
T21 construct: purchased Thermo Fisher Scientific SelectScreen (plus Nanosyn / Reaction Biology for CDK/cyclin lines)
Summary of the method: as §1

RET V804L = target: T22, RET V804L (Homo sapiens, UniProt P07949, V804L)
T22 construct: purchased Thermo Fisher Scientific SelectScreen (plus Nanosyn / Reaction Biology for CDK/cyclin lines)
Summary of the method: as §1

EPHB4 = target: T23, EPHB4 (Homo sapiens, UniProt P54760)
T23 construct: purchased Thermo Fisher Scientific SelectScreen (plus Nanosyn / Reaction Biology for CDK/cyclin lines)
Summary of the method: as §1

PRKCN (PKD3) = target: T24, PRKCN (PKD3) (Homo sapiens, UniProt O94806)
T24 construct: purchased Thermo Fisher Scientific SelectScreen (plus Nanosyn / Reaction Biology for CDK/cyclin lines)
Summary of the method: as §1

CAMK2B (CaMKII beta) = target: T25, CAMK2B (CaMKII beta) (Homo sapiens, UniProt Q13554)
T25 construct: purchased Thermo Fisher Scientific SelectScreen (plus Nanosyn / Reaction Biology for CDK/cyclin lines)
Summary of the method: as §1

RPS6KA2 (RSK3) = target: T26, RPS6KA2 (RSK3) (Homo sapiens, UniProt Q15349)
T26 construct: purchased Thermo Fisher Scientific SelectScreen (plus Nanosyn / Reaction Biology for CDK/cyclin lines)
Summary of the method: as §1

FYN = target: T27, FYN (Homo sapiens, UniProt P06241)
T27 construct: purchased Thermo Fisher Scientific SelectScreen (plus Nanosyn / Reaction Biology for CDK/cyclin lines)
Summary of the method: as §1

MINK1 = target: T28, MINK1 (Homo sapiens, UniProt Q8N4C8)
T28 construct: purchased Thermo Fisher Scientific SelectScreen (plus Nanosyn / Reaction Biology for CDK/cyclin lines)
Summary of the method: as §1

AMPK A1/B1/G1 = target: T29, AMPK A1/B1/G1 (Homo sapiens, UniProt Q13131)
T29 construct: purchased Thermo Fisher Scientific SelectScreen (plus Nanosyn / Reaction Biology for CDK/cyclin lines)
T29 sequence (Q13131 whole entry): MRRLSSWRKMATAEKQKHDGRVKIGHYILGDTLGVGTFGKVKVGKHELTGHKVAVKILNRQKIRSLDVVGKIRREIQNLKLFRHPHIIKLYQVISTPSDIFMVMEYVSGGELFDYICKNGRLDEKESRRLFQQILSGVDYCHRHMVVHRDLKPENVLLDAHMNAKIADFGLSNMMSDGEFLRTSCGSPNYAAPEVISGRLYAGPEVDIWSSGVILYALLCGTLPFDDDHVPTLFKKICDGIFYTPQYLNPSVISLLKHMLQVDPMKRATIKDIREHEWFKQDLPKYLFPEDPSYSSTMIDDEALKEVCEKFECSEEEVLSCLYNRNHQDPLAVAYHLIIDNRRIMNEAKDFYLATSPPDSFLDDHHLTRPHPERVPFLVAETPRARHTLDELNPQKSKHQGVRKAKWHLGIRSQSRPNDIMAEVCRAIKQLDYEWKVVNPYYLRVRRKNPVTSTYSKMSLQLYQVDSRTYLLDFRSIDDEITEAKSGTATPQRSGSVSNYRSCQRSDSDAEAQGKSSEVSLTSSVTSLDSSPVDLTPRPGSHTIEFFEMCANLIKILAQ
T29 sequence (Q9Y478 whole entry partner): as the sequence (Q9Y478 whole entry partner) above
T29 sequence (P54619 whole entry partner): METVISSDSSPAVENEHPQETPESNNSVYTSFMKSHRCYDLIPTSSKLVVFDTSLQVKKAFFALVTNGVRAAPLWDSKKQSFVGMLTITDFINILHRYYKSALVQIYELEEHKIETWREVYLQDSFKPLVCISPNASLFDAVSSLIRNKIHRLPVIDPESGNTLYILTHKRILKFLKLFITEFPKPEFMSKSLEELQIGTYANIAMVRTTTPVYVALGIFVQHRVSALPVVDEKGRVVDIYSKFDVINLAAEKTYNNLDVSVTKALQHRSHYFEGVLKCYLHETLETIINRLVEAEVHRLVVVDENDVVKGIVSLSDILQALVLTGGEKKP
Summary of the method: as §1

LCK = target: T30, LCK (Homo sapiens, UniProt P06239)
T30 construct: purchased Thermo Fisher Scientific SelectScreen (plus Nanosyn / Reaction Biology for CDK/cyclin lines)
T30 sequence (P06239 whole entry): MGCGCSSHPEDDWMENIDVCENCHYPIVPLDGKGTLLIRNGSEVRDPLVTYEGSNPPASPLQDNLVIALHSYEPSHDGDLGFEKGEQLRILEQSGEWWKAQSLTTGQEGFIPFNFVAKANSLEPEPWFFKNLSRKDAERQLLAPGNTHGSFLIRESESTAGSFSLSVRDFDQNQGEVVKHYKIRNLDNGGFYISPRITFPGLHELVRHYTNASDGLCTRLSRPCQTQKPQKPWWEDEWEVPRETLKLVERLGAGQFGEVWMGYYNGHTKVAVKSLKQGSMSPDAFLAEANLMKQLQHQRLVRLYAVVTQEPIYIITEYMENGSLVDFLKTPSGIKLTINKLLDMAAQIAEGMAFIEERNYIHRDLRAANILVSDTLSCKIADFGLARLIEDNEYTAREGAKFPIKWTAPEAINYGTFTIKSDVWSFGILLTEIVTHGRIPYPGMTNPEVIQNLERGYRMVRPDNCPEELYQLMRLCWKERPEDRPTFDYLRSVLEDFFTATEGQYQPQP
Summary of the method: as §1

CDK1/cyclin B = target: T31, CDK1/cyclin B (Homo sapiens, UniProt P06493)
T31 construct: purchased Thermo Fisher Scientific SelectScreen (plus Nanosyn / Reaction Biology for CDK/cyclin lines)
Summary of the method: as §1

INSR = target: T32, INSR (Homo sapiens, UniProt P06213)
T32 construct: purchased Thermo Fisher Scientific SelectScreen (plus Nanosyn / Reaction Biology for CDK/cyclin lines)
Summary of the method: as §1

SBK1 = target: T33, SBK1 (Homo sapiens, UniProt Q52WX2)
T33 construct: purchased Thermo Fisher Scientific SelectScreen (plus Nanosyn / Reaction Biology for CDK/cyclin lines)
Summary of the method: as §1

ROCK1 = target: T34, ROCK1 (Homo sapiens, UniProt Q13464)
T34 construct: purchased Thermo Fisher Scientific SelectScreen (plus Nanosyn / Reaction Biology for CDK/cyclin lines)
Summary of the method: as §1

FRAP1 (mTOR) = target: T35, FRAP1 (mTOR) (Homo sapiens, UniProt P42345)
T35 construct: purchased Thermo Fisher Scientific SelectScreen (plus Nanosyn / Reaction Biology for CDK/cyclin lines)
Summary of the method: as §1

PRKCQ (PKC theta) = target: T36, PRKCQ (PKC theta) (Homo sapiens, UniProt Q04759)
T36 construct: purchased Thermo Fisher Scientific SelectScreen (plus Nanosyn / Reaction Biology for CDK/cyclin lines)
Summary of the method: as §1

AURKC (Aurora C) = target: T37, AURKC (Aurora C) (Homo sapiens, UniProt Q9UQB9)
T37 construct: purchased Thermo Fisher Scientific SelectScreen (plus Nanosyn / Reaction Biology for CDK/cyclin lines)
Summary of the method: as §1

GRK4 = target: T38, GRK4 (Homo sapiens, UniProt P32298)
T38 construct: purchased Thermo Fisher Scientific SelectScreen (plus Nanosyn / Reaction Biology for CDK/cyclin lines)
Summary of the method: as §1

NS(=O)(=O)c1ccc(Nc2ncc3cc4n(c3n2)C2(CCCCC2)C(=O)NN4)cc1 [INX-315]
inhibition at 0.1 µM (SRMS (Srm)): 17%
inhibition at 0.1 µM (ZAP70): -1%
inhibition at 0.1 µM (NEK1): -10%
inhibition at 0.1 µM (FGFR3 K650E): 31%
inhibition at 0.1 µM (HIPK1 (Myak)): 6%
inhibition at 0.1 µM (CAMK1G (CAMKI gamma)): 0%
inhibition at 0.1 µM (PRKCZ (PKC zeta)): 10%
inhibition at 0.1 µM (MAPK14 (p38 alpha)): 1%
inhibition at 0.1 µM (NEK9): 2%
inhibition at 0.1 µM (MAP4K5 (KHS1)): 23%
inhibition at 0.1 µM (PLK1): 4%
inhibition at 0.1 µM (AMPK (A2/B1/G3)): 17%
inhibition at 0.1 µM (MST4): -4%
inhibition at 0.1 µM (PAK1): 6%
inhibition at 0.1 µM (SRPK1): 7%
inhibition at 0.1 µM (MAPK3 (ERK1)): 2%
inhibition at 0.1 µM (DYRK1A): 1%
inhibition at 0.1 µM (PAK3): 4%
inhibition at 0.1 µM (CDK5/p25): 93%
inhibition at 0.1 µM (CSNK1G2 (CK1 gamma 2)): 3%
inhibition at 0.1 µM [1]: 5%
inhibition at 0.1 µM (RET V804L): 35%
inhibition at 0.1 µM (EPHB4): 6%
inhibition at 0.1 µM (PRKCN (PKD3)): 13%
inhibition at 0.1 µM (CAMK2B (CaMKII beta)): 17%
inhibition at 0.1 µM (RPS6KA2 (RSK3)): 24%
inhibition at 0.1 µM (FYN): 4%
inhibition at 0.1 µM (MINK1): 15%
inhibition at 0.1 µM (AMPK A1/B1/G1): 32%
inhibition at 0.1 µM (LCK): 19%
inhibition at 0.1 µM (CDK1/cyclin B): 58%
inhibition at 0.1 µM (INSR): 7%
inhibition at 0.1 µM (SBK1): 5%
inhibition at 0.1 µM (ROCK1): 5%
inhibition at 0.1 µM (FRAP1 (mTOR)): 0%
inhibition at 0.1 µM (PRKCQ (PKC theta)): 8%
inhibition at 0.1 µM (AURKC (Aurora C)): 53%
inhibition at 0.1 µM (GRK4): 31%

Reference: article PMC10905675, “INX-315, a Selective CDK2 Inhibitor, Induces Cell Cycle Arrest and Senescence in Solid Tumors” (Cancer Discovery, 2023)
